Measured values published in ChEMBL document CHEMBL1201862, “PubChem BioAssay data set” (2004).
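In this assay, cells in 96-well plates receive the compound at five concentrations for 48 hours. Endpoints are linearly interpolated between the surrounding concentrations. GI50: concentration for 50% inhibition of growth.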 The source made the active and inactive calls. Cut-off read from the data, not from the text of the source: active = GI50 up to about 1.1 µM and inactive = higher.

Experiments:
Experiment in all cases: NCI-60 cell line screen, 48 h
HOP-62 = system: HOP-62
OVCAR-8 = system: OVCAR-8
OVCAR-3 = system: OVCAR-3
OVCAR-4 = system: OVCAR-4
SK-MEL-28 = system: SK-MEL-28
T47D = system: T47D
SNB-19 = system: SNB-19
HT-29 = system: HT-29
MCF7 = system: MCF7
ACHN = system: ACHN
K562 = system: K562
HOP-92 = system: HOP-92
HCT-15 = system: HCT-15
EKVX = system: EKVX
SN12C = system: SN12C
NCI-H522 = system: NCI-H522
SF-295 = system: SF-295
SR = system: SR
UO-31 = system: UO-31
IGROV-1 = system: IGROV-1

SMILES	GI50 (HOP-62)	GI50 (OVCAR-8)	GI50 (OVCAR-3)	GI50 (OVCAR-4)	GI50 (SK-MEL-28)	GI50 (T47D)	GI50 (SNB-19)	GI50 (HT-29)	GI50 (MCF7)	GI50 (ACHN)	GI50 (K562)	GI50 (HOP-92)	GI50 (HCT-15) [µM]	GI50 (EKVX)	GI50 (SN12C)	GI50 (NCI-H522)	GI50 (SF-295)	GI50 (SR)	GI50 (UO-31)	GI50 (IGROV-1)
CCC1CN2CCc3cc(OC)c(OC)cc3C2CC1CC1c2cc(OC)c(OC)cc2CCN1C(=O)C(Cc1c[nH]c2ccccc12)NC(=O)OC(C)(C)C (configuration not stated)	4.91 µM (inactive)	3.27 µM (inactive)	3.3 µM (inactive)	1.7 µM (inactive)	1.98 µM (inactive)	1.85 µM (inactive)	7.59 µM (inactive)	2.03 µM (inactive)	2.31 µM (inactive)	3.84 µM (inactive)	2.7 µM (inactive)	2.62 µM (inactive)	2.58	5.7 µM (inactive)	3.26 µM (inactive)	2.28 µM (inactive)	3.97 µM (inactive)	1.73 µM (inactive)	2.77 µM (inactive)	1.73 µM (inactive)
N#CC(C#N)SCc1ccccc1	15.7 µM (inactive)	15 µM (inactive)	23.8 µM (inactive)	23.7 µM (inactive)	36.2 µM (inactive)	18.5 µM (inactive)	21 µM (inactive)	27.4 µM (inactive)	4.55 µM (inactive)	40.4 µM (inactive)	1.12 µM (inactive)	15.5 µM (inactive)	31.1	> 96.2 µM (inactive)	8.3 µM (inactive)	5.86 µM (inactive)	16.8 µM (inactive)	1.11 µM (active)	20.1 µM (inactive)	23.1 µM (inactive)
CO/C(=C/C(=O)C(Cl)(Cl)Cl)CC/C(=C\C(=O)C(Cl)(Cl)Cl)OC	20.8 µM (inactive)	21.9 µM (inactive)	26.8 µM (inactive)	19.1 µM (inactive)	30.1 µM (inactive)	25.4 µM (inactive)	45.8 µM (inactive)	25 µM (inactive)	24.2 µM (inactive)	24.5 µM (inactive)	25.8 µM (inactive)	18.4 µM (inactive)	22.5	20.4 µM (inactive)	23.2 µM (inactive)	20.1 µM (inactive)	36.3 µM (inactive)	18.6 µM (inactive)	20.5 µM (inactive)	16.3 µM (inactive)
COc1c(/C=C/C=O)cc2c(c1OC)OCO2	25.5 µM (inactive)	33.6 µM (inactive)	33.2 µM (inactive)	16.6 µM (inactive)	> 100 µM (inactive)	23.3 µM (inactive)	16.4 µM (inactive)	24.2 µM (inactive)	28 µM (inactive)	27.3 µM (inactive)	–	61.5 µM (inactive)	15.3	55.3 µM (inactive)	24.2 µM (inactive)	78.3 µM (inactive)	21.2 µM (inactive)	12.9 µM (inactive)	35.9 µM (inactive)	22.8 µM (inactive)
Cc1ccc(C(=O)N/N=C(\N=N\c2ccccc2)c2ccc(N(CCC#N)CCC#N)cc2C)cc1	23.1 µM (inactive)	38 µM (inactive)	39.2 µM (inactive)	65.5 µM (inactive)	13 µM (inactive)	> 100 µM (inactive)	58.3 µM (inactive)	35.1 µM (inactive)	53.5 µM (inactive)	> 100 µM (inactive)	> 100 µM (inactive)	> 100 µM (inactive)	> 100	74.6 µM (inactive)	–	19.4 µM (inactive)	86.5 µM (inactive)	> 100 µM (inactive)	> 100 µM (inactive)	> 100 µM (inactive)
COc1ccc(/C=C2/CSCC3=C2N=C(S)NC3c2ccc(OC)c(OC)c2OC)c(OC)c1OC (configuration not stated)	20.1 µM (inactive)	7.52 µM (inactive)	43.7 µM (inactive)	2.61 µM (inactive)	18.4 µM (inactive)	43.4 µM (inactive)	20.1 µM (inactive)	12.6 µM (inactive)	0.0798 µM (active)	19 µM (inactive)	7.6 µM (inactive)	< 0.01 µM (active)	25.7	51.3 µM (inactive)	17 µM (inactive)	22.1 µM (inactive)	32.6 µM (inactive)	< 0.01 µM (active)	–	20 µM (inactive)
Clc1cccc(N/N=N/c2ccc(-c3nc4ccccc4s3)cc2)c1	> 100 µM (inactive)	22.4 µM (inactive)	51.5 µM (inactive)	46.9 µM (inactive)	42.8 µM (inactive)	47.9 µM (inactive)	86.1 µM (inactive)	> 100 µM (inactive)	47.5 µM (inactive)	> 100 µM (inactive)	28.6 µM (inactive)	20.4 µM (inactive)	32.4	> 100 µM (inactive)	21.9 µM (inactive)	24.2 µM (inactive)	> 100 µM (inactive)	20.9 µM (inactive)	> 100 µM (inactive)	21.4 µM (inactive)
CSc1c(C#N)c(O)n(-c2ccc(C)cc2)c(=O)c1C#N	–	> 100 µM (inactive)	> 100 µM (inactive)	> 100 µM (inactive)	> 100 µM (inactive)	> 100 µM (inactive)	> 100 µM (inactive)	> 100 µM (inactive)	> 100 µM (inactive)	–	> 100 µM (inactive)	> 100 µM (inactive)	> 100	> 100 µM (inactive)	> 100 µM (inactive)	> 100 µM (inactive)	–	> 100 µM (inactive)	> 100 µM (inactive)	> 100 µM (inactive)
COC(=O)c1c2c(cc3c1CC1(C3)Cc3cc4c(c(C(=O)OC)c3C1)CCC4)CCC2	> 100 µM (inactive)	> 100 µM (inactive)	> 100 µM (inactive)	86.9 µM (inactive)	–	> 100 µM (inactive)	–	> 100 µM (inactive)	> 100 µM (inactive)	> 100 µM (inactive)	> 100 µM (inactive)	> 100 µM (inactive)	–	> 100 µM (inactive)	> 100 µM (inactive)	> 100 µM (inactive)	> 100 µM (inactive)	30.7 µM (inactive)	13.6 µM (inactive)	> 100 µM (inactive)
CC(=O)OC[C@@]12Cc3ccc(C)c(O)c3[C@]1(C)[C@@H](OC(C)=O)[C@]1(O)[C@H]([C@@H](OC(=O)c3ccccc3)[C@@H](C)[C@H]1OC(C)=O)[C@H]2OC(C)=O	> 50 µM (inactive)	> 50 µM (inactive)	> 50 µM (inactive)	> 50 µM (inactive)	–	> 50 µM (inactive)	> 50 µM (inactive)	–	> 50 µM (inactive)	> 50 µM (inactive)	> 50 µM (inactive)	> 50 µM (inactive)	> 50	> 50 µM (inactive)	> 50 µM (inactive)	> 50 µM (inactive)	> 50 µM (inactive)	> 50 µM (inactive)	> 50 µM (inactive)	> 50 µM (inactive)
Nc1nc(Cl)cc(NC2(CO)CCC2)n1	> 100 µM (inactive)	> 100 µM (inactive)	> 100 µM (inactive)	> 100 µM (inactive)	> 100 µM (inactive)	> 100 µM (inactive)	–	> 100 µM (inactive)	> 100 µM (inactive)	> 100 µM (inactive)	> 100 µM (inactive)	> 100 µM (inactive)	> 100	> 100 µM (inactive)	> 100 µM (inactive)	> 100 µM (inactive)	> 100 µM (inactive)	> 100 µM (inactive)	> 100 µM (inactive)	> 100 µM (inactive)
CC1(C)C=Cc2c(cc3oc4ccc5c(c4c(=O)c3c2O)C=CC(C)(C)O5)O1	> 100 µM (inactive)	> 100 µM (inactive)	> 100 µM (inactive)	> 100 µM (inactive)	> 100 µM (inactive)	> 100 µM (inactive)	> 100 µM (inactive)	> 100 µM (inactive)	> 100 µM (inactive)	> 100 µM (inactive)	–	> 100 µM (inactive)	> 100	> 100 µM (inactive)	> 100 µM (inactive)	> 100 µM (inactive)	> 100 µM (inactive)	75.3 µM (inactive)	> 100 µM (inactive)	> 100 µM (inactive)
CC(=O)NNc1nc(C)c(C(/C=C/c2ccc([N+](=O)[O-])cc2)=N/NC(N)=O)s1	> 100 µM (inactive)	> 100 µM (inactive)	> 100 µM (inactive)	> 100 µM (inactive)	> 100 µM (inactive)	> 100 µM (inactive)	> 100 µM (inactive)	> 100 µM (inactive)	> 100 µM (inactive)	> 100 µM (inactive)	> 100 µM (inactive)	> 100 µM (inactive)	> 100	44.8 µM (inactive)	> 100 µM (inactive)	> 100 µM (inactive)	> 100 µM (inactive)	> 100 µM (inactive)	> 100 µM (inactive)	44.8 µM (inactive)
Cc1ccc(S(=O)(=O)NC(CO)C(=O)O)cc1 (configuration not stated)	> 100 µM (inactive)	> 100 µM (inactive)	> 100 µM (inactive)	> 100 µM (inactive)	> 100 µM (inactive)	> 100 µM (inactive)	> 100 µM (inactive)	> 100 µM (inactive)	> 100 µM (inactive)	> 100 µM (inactive)	> 100 µM (inactive)	> 100 µM (inactive)	> 100	> 100 µM (inactive)	> 100 µM (inactive)	> 100 µM (inactive)	> 100 µM (inactive)	> 100 µM (inactive)	> 100 µM (inactive)	> 100 µM (inactive)
O=C(NNC(=O)c1ccncc1)c1ccncc1	> 100 µM (inactive)	> 100 µM (inactive)	> 100 µM (inactive)	> 100 µM (inactive)	> 100 µM (inactive)	> 100 µM (inactive)	> 100 µM (inactive)	> 100 µM (inactive)	> 100 µM (inactive)	> 100 µM (inactive)	> 100 µM (inactive)	> 100 µM (inactive)	> 100	> 100 µM (inactive)	> 100 µM (inactive)	> 100 µM (inactive)	> 100 µM (inactive)	> 100 µM (inactive)	> 100 µM (inactive)	> 100 µM (inactive)
